Bounds are passed on as bounds.

Holding throughout (assay type): functional
The species named for test [1] is Rattus norvegicus. Nature of the test: Percentage response to 0.1 mM of kainic acid (KA) at 2 mM in rat striatum slices.
The species entered for test [2] is Rattus norvegicus. The test is described as follows: Percentage response to 0.1 mM of quisqualic acid at 2 mM in rat striatum slices.
The species entered for test [3] is Rattus norvegicus. The test is described as follows: Concentration at which the compound inhibits half of the response of N-methyl-D-aspartic acid (NMDA).
The species named for test [4] is Rattus norvegicus. Nature of the test: Concentration at which the compound inhibits half of the response of kainic acid (KA).
The species entered for test [5] is Rattus norvegicus. Nature of the test: Percentage response to 0.5 mM of L-Glutamic acid at 2 mM in rat striatum slices.
The species named for test [6] is Rattus norvegicus. The test is described as follows: Percentage response to 30 uM of N-methyl-D-aspartic acid (NMDA) at 2 mM in rat striatum slices.
The species entered for test [7] is Rattus norvegicus. Nature of the test: Percentage response to 0.5 mM of L-Glutamic acid at 1 mM in rat striatum slices.
For test [8], the species on record is Rattus norvegicus. Nature of the test: Percentage response to 30 uM of N-methyl-D-aspartic acid (NMDA) at 1 mM in rat striatum slices.
The species entered for test [9] is Rattus norvegicus. Nature of the test: Percentage response to 0.1 mM of quisqualic acid at 1 mM in rat striatum slices.
Test [10] is filed under the species Rattus norvegicus. The test is described as follows: Percentage response to 0.1 mM of kainic acid (KA) at 1 mM in rat striatum slices.
The species entered for test [11] is Rattus norvegicus. The test is described as follows: Percentage response to 0.1 mM of kainic acid (KA) at 3 mM in rat striatum slices.
Test [12] is filed under the species Rattus norvegicus. The test is described as follows: Percentage response to 0.1 mM of quisqualic acid at 3 mM in rat striatum slices.
The species named for test [13] is Rattus norvegicus. Nature of the test: Percentage response to 30 uM of N-methyl-D-aspartic acid (NMDA) at 3 mM in rat striatum slices.
The species named for test [14] is Rattus norvegicus. The test is described as follows: Percentage response to 0.5 mM of L-Glutamic acid at 3 mM in rat striatum slices.
For test [15], the species on record is Rattus norvegicus. Nature of the test: Percentage response to 30 uM of N-methyl-D-aspartic acid (NMDA) at 1.5 mM in rat striatum slices.
The species named for test [16] is Rattus norvegicus. Nature of the test: Percentage response to 0.5 mM of L-Glutamic acid at 1.5 mM in rat striatum slices.

For orientation: IC50 means the point on the concentration scale where inhibition reaches its midpoint. Read a low IC50 as higher potency. Regarding `CC1(C)OC(=O)C[C@@H]2[C@@H](C(=O)O)NC[C@@H]21`, the Response in the test listed under Rattus norvegicus [1] is reported as 66%; in the test filed under Rattus norvegicus [2], 94%; in the test listed under Rattus norvegicus [5], 96%; in the test listed under Rattus norvegicus [6] it was below 16%. Further, the half-maximal inhibitory concentration (IC50) in the test listed under Rattus norvegicus [3] was found to be 300 µM; in the test filed under Rattus norvegicus [4], 3000 µM.
With `CC1(CI)OC(=O)C[C@@H]2[C@@H](C(=O)O)NC[C@@H]21` (stereo partly drawn), the Response was below 15% in the test listed under Rattus norvegicus [1], 96% in the test filed under Rattus norvegicus [2], 74% in the test listed under Rattus norvegicus [5] and below 42% in the test filed under Rattus norvegicus [6].
For `NC(CCCP(=O)(O)O)C(=O)O` (stereo not drawn), the Response in the test listed under Rattus norvegicus [7] was below 64%; in the test listed under Rattus norvegicus [8], below 0%; in the test listed under Rattus norvegicus [9], below 91%; in the test listed under Rattus norvegicus [10] it was 118%.
In the test filed under Rattus norvegicus [4], `CC1(CSc2ccccc2)OC(=O)C[C@@H]2[C@H](C(=O)O)NC[C@@H]21` (stereo partly drawn) returned a half-inhibitory concentration (IC50) of 200 µM. The Response is 87% in the test listed under Rattus norvegicus [7], below 36% in the test filed under Rattus norvegicus [8], below 53% in the test filed under Rattus norvegicus [9] and below 0% in the test listed under Rattus norvegicus [10].
Turning to `CC1(CO)OC(=O)C[C@@H]2[C@@H](C(=O)O)NC[C@@H]21` (stereo partly drawn), the values for the half-inhibitory concentration (IC50) in the test listed under Rattus norvegicus [3] and in the test listed under Rattus norvegicus [4] were 2000 µM and 3000 µM, respectively. For the same compound, the Response in the test filed under Rattus norvegicus [11] is recorded as below 50%; in the test filed under Rattus norvegicus [12] it was 94%; in the test listed under Rattus norvegicus [13], below 36%; in the test listed under Rattus norvegicus [14], 106%.
For the compound `CC1(CSc2ccccc2)OC(=O)C[C@@H]2[C@@H](C(=O)O)NC[C@@H]21` (stereo partly drawn), the Response in the test filed under Rattus norvegicus [9] was 76%; in the test listed under Rattus norvegicus [15], below 10%; in the test filed under Rattus norvegicus [10] it was below 16%; in the test listed under Rattus norvegicus [16], 84%.
On to `CC1(CI)OC(=O)C[C@@H]2[C@H](C(=O)O)NC[C@@H]21` (stereo partly drawn), for which the Response in the test filed under Rattus norvegicus [1] was below 8%; in the test listed under Rattus norvegicus [2], 111%; in the test listed under Rattus norvegicus [5], 79%; in the test filed under Rattus norvegicus [6], below 49%.

The values above are taken from ChEMBL document CHEMBL1122308, “Bicyclic lactones derived from kainic acid as novel selective antagonists of neuroexcitatory amino acids” (J Med Chem, 1983).
